Assay results as given in patent publication US8183252B2, “Heterocyclic aspartyl protease inhibitors” (Schering Corporation, priority 2007, dated 2012).
pKi: −log10 of the molar value.

target: T1, human BACE1 (sproBACE1) (Homo sapiens, UniProt P56817); assay: BACE-1 Peptide Hydrolysis Assay (HTRF); type: biochemical; conditions: not given
T1 construct: sBACE1, corresponding to amino acids 1-454; made in house; host or cells: Sf9 insect cells (baculovirus), secreted into the medium
Excerpt: A HindIII/PmeI fragment from pCDNA4-sBACE1myc/His was blunt ended using Klenow and subcloned into the Stu I site of PFASTBACI(A) (Invitrogen). A sBACE1mycHis recombinant bacmid was generated by transposition in DH10Bac cells (GIBCO/BRL). Subsequently, the sBACE1mycHis bacmid construct was transfected into sf9 cells using CellFectin (Invitrogen, San Diego, Calif.) in order to generate recombinant baculovirus. […] Five milliliters of high titer plaque purified sBACEmyc/His virus was used to infect 1 L of logarithmically growing sf9 cells for 72 hours. Intact cells were pelleted by centrifugation at 3000×g for 15 minutes. The supernatant, containing secreted sBACE1, was collected and diluted 50% v/v with 100 mM HEPES, pH 8.0. The diluted medium was loaded onto a Q-sepharose column. The Q-sepharose column was washed with Buffer A (20 mM HEPES, pH 8.0, 50 mM NaCl).
Proteins, were eluted from the Q-sepharose column with Buffer B (20 mM HEPES, pH 8.0, 500 mM NaCl). The protein peaks from the Q-sepharose column were pooled and loaded onto a Ni-NTA agarose column. The Ni-NTA column was then washed with Buffer C (20 mM HEPES, pH 8.0, 500 mM NaCl). Bound proteins were then eluted with Buffer D (Buffer C+250 mM imidazole).
Reactions were initiated by addition of substrate in a 5 μl aliquot resulting in a total volume of 25 μl. After 3 hr at 30° C. reactions were terminated by addition of an equal volume of 2× stop buffer containing 50 mM Tris-HCl pH 8.0, 0.5 M KF, 0.001% Brij-35, 20 μg/ml SA-XL665 (cross-linked allophycocyanin protein coupled to streptavidin; CIS-Bio International, France) (0.5 μg/well). Plates were shaken briefly and spun at 1200×g for 10 seconds to pellet all liquid to the bottom of the plate before the incubation.
Y=Bottom+(Top-Bottom)/(1+10^((LogEC50−X)*Hill Slope)); X is the logarithm of concentration of I, Y is the percent change in ratio and Y starts at bottom and goes to top with a sigmoid shape.

T1 sequence (P56817 22-454): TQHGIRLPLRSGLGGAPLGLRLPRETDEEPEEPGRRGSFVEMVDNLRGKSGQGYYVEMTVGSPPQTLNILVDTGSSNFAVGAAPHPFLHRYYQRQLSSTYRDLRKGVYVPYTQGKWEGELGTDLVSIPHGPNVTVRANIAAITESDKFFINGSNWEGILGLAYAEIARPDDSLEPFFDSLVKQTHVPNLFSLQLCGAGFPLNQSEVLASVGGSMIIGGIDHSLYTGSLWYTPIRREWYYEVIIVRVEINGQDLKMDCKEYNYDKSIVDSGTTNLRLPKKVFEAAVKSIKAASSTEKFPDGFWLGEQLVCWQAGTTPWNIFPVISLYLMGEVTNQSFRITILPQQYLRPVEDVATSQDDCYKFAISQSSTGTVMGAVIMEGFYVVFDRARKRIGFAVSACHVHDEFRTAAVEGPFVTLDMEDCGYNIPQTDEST

| Compound | pKi |
| --- | --- |
| COc1ccc(C=O)c(-c2cccc(C3(C)NC(=N)N(CC4CCN(C(C)=O)CC4)C3=O)c2)c1 (centres unmarked) | > 5.30 |
| COc1ccc(CNc2ccccc2)c(-c2cccc(C3(C)NC(=N)N(CC4CCN(C(C)=O)CC4)C3=O)c2)c1 (centres unmarked) | > 5.30 |
| CCn1nccc1Nc1cccc(C2(C)NC(=N)N(CC3CCN(C(C)=O)CC3)C2=O)c1 (racemic) | > 5.30 |

same assay, conditions: read-out: BACE-1 Ki

| Compound | pKi |
| --- | --- |
| COc1cc(C#N)cc(-c2cc([C@@]3(C)NC(=N)N(C)C(=O)[C@@H]3C)sc2C)c1 | > 5.30 |
| CCOc1cc(F)cc(-c2csc([C@]3(C)CC(=O)N(C)C(=N)N3)c2)c1 | > 5.30 |
| CN1C(=N)N[C@](C)(c2cc(-c3ccc(F)nc3)c3sccc3c2)CC1=O | > 5.30 |
| CN1C(=N)NC(C)(c2cc(-c3ccc(F)c(C#N)c3)cs2)C(Br)C1=O (centres unmarked) | > 5.30 |
| CCC(C)N1C(=N)NC(c2cccc(-c3cccc(Cl)c3)c2)(C2CC2)C1=O (centres unmarked) [4-imidazolidinone, 5-(3′-chloro[1,1′-biphenyl]-3-yl)-5-cyclopropyl-2-imino-3-(1-methylpropyl)-] | > 5.30 |
| CC1(c2cccc(-c3cccc(Cl)c3)c2)NC(=N)N(CC2CCN(C(=O)Nc3ccccc3)C2)C1=O (centres unmarked) | > 5.30 |
| COc1ccc([C@H]2C(=O)N(C)C(=N)N[C@]2(C)c2cncs2)cc1 | > 5.30 |
| N=C1NC(c2cccc(-c3cccc(Cl)c3)c2)(C2CC2)C(=O)N1CC(F)(F)F (centres unmarked) [4-imidazolidinone, 5-(3′-chloro[1,1′-biphenyl]-3-yl)-5-cyclopropyl-2-imino-3-(2,2,2-trifluoroethyl)-] | > 5.30 |
| CN1C(=N)N[C@@](c2cccc(-c3cc(Cl)cnc3F)c2)(C2CC2)C1=O | > 5.30 |
| CN1C(=N)N[C@](CCc2ccccc2)(C[C@H]2CCC[C@@H](NC3CCCCC3)C2)C1=O | > 5.30 |
| CN1C(=N)N[C@](CCc2ccccc2)(C[C@H]2CCC[C@@H](Nc3ccccc3)C2)C1=O | > 5.30 |
| CN1OCC(C)(c2cc(-c3cccc(C#N)c3)cs2)NC1=N (centres unmarked) | > 5.30 |
| CN1C(=N)NC(c2cccc(Br)c2)(C2CCCC2)C1=O (centres unmarked) [5-(3-BROMOPHENYL)-5-CYCLOPENTYL-2-IMINO-3-METHYL-4-IMIDAZOLIDINONE] | > 5.30 |
| CC(C)Oc1cccc([C@H]2C(=O)N(C)C(=N)N[C@]2(C)c2cc(-c3cccc(C#N)c3)cs2)c1 | > 5.30 |
| CN1C(=N)NC(c2cccc(Br)c2)(C2CCCCC2)C1=O (centres unmarked) [5-(3-BROMOPHENYL)-5-CYCLOHEXYL-2-IMINO-3-METHYL-4-IMIDAZOLIDINONE] | > 5.30 |
| N=C1NC(c2ccccc2)(c2ccccc2)C(=O)N1CC1CCN(C(=O)CCN)CC1 | > 5.30 |
| CN1C(=N)N[C@](CCc2ccccc2)(C[C@H]2CCC[C@H](Nc3cccnc3)C2)C1=O | > 5.30 |
| CN1C(=N)N[C@](C)(c2c(F)cc(F)cc2F)[C@@H](c2ccc(C(C)(F)F)cc2)C1=O | > 5.30 |
| CN1C(=N)NC(C)(c2cccc(-c3cncc(C#N)c3)c2)C1=O (racemic) | > 5.30 |
| CN1C(=N)NC(CCc2ccccc2)(CC2CCCC(Nc3ccccn3)C2)C1=O (centres unmarked) | > 5.30 |
| Cc1csc(-c2csc(C3(C4CC4)NC(=N)N(C)C3=O)c2)c1 (centres unmarked) | > 5.30 |
| CN1C(=N)NC(c2cccc(Br)c2)(C2CCC2)C1=O (centres unmarked) [5-(3-BROMOPHENYL)-5-CYCLOBUTYL-2-IMINO-3-METHYL-4-IMIDAZOLIDINONE] | > 5.30 |
| CCCCS(=O)(=O)Nc1cccc(CN2C(=N)NC(c3ccccc3)(c3ccccc3)C2=O)c1 | > 5.30 |
| CCc1csc([C@]2(C)CC(=O)N(C)C(=N)N2)c1 | > 5.30 |
| CC(C)CC(=O)Nc1cccc(CN2C(=N)NC(c3ccccc3)(c3ccccc3)C2=O)c1 | > 5.30 |
| CN1C(=N)N[C@](CCC2CCCCC2)(C[C@H]2CCC[C@@H](NC(=O)c3ccccn3)C2)C1=O | > 5.30 |
| CC(C)S(=O)(=O)Nc1ccc(CN2C(=N)NC(c3ccccc3)(c3ccccc3)C2=O)cc1 [2-propanesulfonamide, N-[4-[(2-imino-5-oxo-4,4-diphenyl-1-imidazolidinyl)methyl]phenyl]-] | > 5.30 |
| Cc1cc([C@]2(C)CC(=O)N(C)C(=N)N2)sc1-c1cccc(OC(F)(F)F)c1 | > 5.30 |

Second part, the compound after the results:

| pKi | Compound |
| --- | --- |
| > 5.30 | N=C1NC(c2ccccc2)(c2ccccc2)C(=O)N1Cc1cccc(C(=O)N2CCOCC2)c1 |
| > 5.30 | CN(c1cccc(CN2C(=N)NC(c3ccccc3)(c3ccccc3)C2=O)c1)S(C)(=O)=O |
| > 5.30 | CN1C(=N)N[C@](CCC2CCCCC2)(C[C@H]2CCC[C@@H](NC(=O)NC(=O)c3ccccc3)C2)C1=O |
| > 5.30 | CCC(CO)N1C(=N)NC(c2cccc(-c3cccc(Cl)c3)c2)(C2CC2)C1=O (centres unmarked) [4-imidazolidinone, 5-(3′-chloro[1,1′-biphenyl]-3-yl)-5-cyclopropyl-3-[1-(hydroxymethyl)propyl]-2-imino-] |
| > 5.30 | CN1C(=N)N[C@@](C[C@H]2CCC[C@@H](Nc3ccc4ccccc4n3)C2)(C2CC2)C1=O |
| > 5.30 | CS(=O)(=O)Nc1cccc(CN2C(=N)NC(c3ccccc3)(c3ccccc3)C2=O)c1 |
| > 5.30 | CN1C(=N)NC(C)(c2cccc(-c3cc(Cl)ccc3CNC(=O)c3ccncc3)c2)C1=O (centres unmarked) |
| > 5.30 | CN1C(=N)N[C@](C)(c2cc(-c3cccc(C#N)c3)nn2C)CC1=O |
| > 5.30 | CN1C(=N)N[C@](C)(c2cc(-c3cccc(Br)c3)ns2)CC1=O |
| > 5.30 | CC(=O)N1CCC(CN2C(=N)NC(C)(c3cccc(-c4cccc(C(=O)NCc5ccco5)c4)c3)C2=O)CC1 (centres unmarked) |
| > 5.30 | CN1C(=N)N[C@](C)(c2cc(-c3cncc(Cl)n3)cs2)CC1=O |
| > 5.30 | CN1C(=N)NC(C)(c2cccc(-c3cc(Cl)ccc3CCO)c2)C1=O (centres unmarked) |
| > 5.30 | CN1C(=N)NC(c2ccccc2)(c2cc(-c3cccc(C#N)c3)cs2)C1=O (centres unmarked) [3-[5-(2-IMINO-1-METHYL-5-OXO-4-PHENYL-4-IMIDAZOLIDINYL)-3-THIENYL]BENZONITRILE] |
| > 5.30 | CN1C(=N)N[C@](C)(c2cnc[nH]2)[C@@H](c2cccc(C(C)(F)F)c2)C1=O |
| > 5.30 | COCCN1C(=N)N[C@](C)(c2ccc3sccc3c2)CC1=O |
| > 5.30 | N=C1NC(c2ccccc2)(c2ccccc2)C(=O)N1CC1CCOCC1 |
| > 5.30 | N=C1NC(c2ccccc2)(c2ccccc2)C(=O)N1CC1CCN(C(=O)CN)CC1 |
| > 5.30 | CN1C(=N)NC(C)(c2cc(-c3cccc(C#N)c3)cs2)C(CCCc2ccccc2)(n2cccn2)C1=O (centres unmarked) |
| > 5.30 | CN1C(=N)N[C@](C)(c2cc(-c3cncc(C#N)c3)cs2)[C@H](C2CCC2)C1=O |
| > 5.30 | CN1C(=N)N[C@](C)(c2csc3c(-c4ccsc4)cccc23)CC1=O |

| pKi | Compound |
| --- | --- |
| > 5.30 | COc1ccc(Cl)c(-c2cc([C@]3(C)CC(=O)N(C)C(=N)N3)cc3ccsc23)c1 |
| > 5.30 | CN1C(=N)N[C@](C)(c2cc(-c3cccc(F)c3)c3sccc3c2)CC1=O |
| > 5.30 | CN1C(=N)N[C@](C)(c2scc(C#N)c2F)CC1=O |
| > 5.30 | CN1C(=N)NC(c2ccccc2)(c2cc(-c3cccnc3)cs2)C1=O (centres unmarked) |
| > 5.30 | CN1C(=N)NC(c2ccccc2)(c2cccc(NS(=O)(=O)c3cccc(C#N)c3)c2)C1=O (racemic) |
| > 5.30 | CC(=O)N[C@@H]1CCC[C@H](C[C@@]2(CCc3ccccc3)NC(=N)N(C)C2=O)C1 |
| > 5.30 | CCCC(=O)N1CCC[C@H](CN2C(=N)NC(c3ccccc3)(c3ccccc3)C2=O)C1 |
| > 5.30 | CCn1nccc1Nc1cccc(C2(c3ccccc3)NC(=N)N(C)C2=O)c1 (centres unmarked) |
| > 5.30 | CCC[C@H]1C(=O)N(C)C(=N)N[C@]1(C)c1cccc(I)c1 |
| > 5.30 | CN1C(=N)NC(c2ccccc2)(c2cccc(NS(=O)(=O)c3ccccc3)c2)C1=O (racemic) |
| > 5.30 | CN1C(=N)N[C@](C)(c2ccc(F)cc2F)[C@@H](C2CCN(c3ccc(F)cc3)CC2)C1=O |
| > 5.30 | N=C1NC(c2ccccc2)(c2ccccc2)C(=O)N1CC1CCN(c2ccc3ccccc3n2)CC1 |
| > 5.30 | CCCCS(=O)(=O)N1CCC(CN2C(=N)NC(c3ccccc3)(c3ccccc3)C2=O)CC1 [piperidine, 1-(butylsulfonyl)-4-[(2-imino-5-oxo-4,4-diphenyl-1-imidazolidinyl)methyl]-] |
| > 5.30 | CN1C(=N)NC(C)(c2cc(-c3cccc(C#N)c3)cs2)C(CCCc2ccncc2)C1=O (centres unmarked) |
| > 5.30 | CN1C(=N)N[C@](CCC2CCCCC2)(C[C@H]2CCC[C@@H](N(C)C)C2)C1=O |
| > 5.30 | Cc1c(-c2ccc(F)c(C#N)c2)csc1[C@]1(C)CC(=O)N(C)C(=N)N1 |
| > 5.30 | CN1C(=N)N[C@](C)(c2nc(-c3cccnc3)cs2)CC1=O |
| > 5.30 | CN1C(=N)NC(C)(c2cc(-c3cccc(C#N)c3)cs2)C(CC=Cc2cccc(F)c2)C1=O (centres unmarked) |
| > 5.30 | CN1C(=N)N[C@](C)(c2cc(-c3cc(Br)cc(C#N)c3)cs2)CC1=O |
| > 5.30 | CCCCS(=O)(=O)Nc1ccc(CN2C(=N)NC(c3ccccc3)(c3ccccc3)C2=O)cc1 [1-butanesulfonamide, N-[4-[(2-imino-5-oxo-4,4-diphenyl-1-imidazolidinyl)methyl]phenyl]-] |
